In patent publication US6492381B1, “Tricyclic carbamate compounds useful for inhibition of G-protein function and for treatment of proliferative diseases” (Schering Corp., priority 1993, dated 2002):
Like-named read-outs stand apart in the source and are kept apart here.

How the values were obtained:
[1] = target: T1, farnesyl protein transferase (FPT) (Rattus norvegicus, UniProt Q02293+Q04631); test: In vitro enzyme assay: inhibition of farnesyl protein transferase; assay type: biochemical
T1 construct: were partially purified from rat brain by ammonium sulfate fractionation followed by Q-Sepharose; from tissue; host or cells: rat brain
Procedure: (§1) 1. In vitro enzyme assays: Inhibition of farnesyl protein transferase and geranylgeranyl protein transferase.
Human farnesyl protein transferase was also expressed in E. coli, using cDNA clones encoding both the α and β subunits. […] Two forms of val^12-Ha-Ras protein were prepared as substrates for these enzymes, differing in their carboxy terminal sequence. One form terminated in cysteine-valine-leucine-serine (Ras-CVLS) the other in cystein-valine-leucine-leucine (Ras-CVLL). Ras-CVLS is a substrate for the farnesyl protein transferase while Ras-CVLL is a substrate for geranylgeranyl protein transferase I. The cDNAs encoding these proteins were constructed so that the proteins contain an amino-terminal extension of 6 histidine residues. Both proteins were expressed in Escherichia coli and purified using metal chelate affinity chromatography. The radiolabelled isoprenyl pyrophosphate substrates, [^3H]farnesyl pyrophosphate and [^3H]geranylgeranyl pyrophosphate, were purchased from DuPont/New England Nuclear.
The reaction was allowed to proceed for 30 minutes at room temperature and then stopped with 0.5 ml of 4% sodium dodecyl sulfate (SDS) followed by 0.5 ml of cold 30% trichloracetic acid (TCA). Samples were allowed to sit on ice for 45 minutes and precipitated Ras protein was then collected on GF/C filter paper mats using a Brandel cell harvester. […] Percent inhibition was calculated relative to the DMSO vehicle control.

[2] = target: T2, geranylgeranyl protein transferase (GGPT) I (Rattus norvegicus, UniProt P53610+Q04631); test: In vitro enzyme assay: inhibition of geranylgeranyl protein transferase I; assay type: biochemical
T2 construct: were partially purified from rat brain by ammonium sulfate fractionation followed by Q-Sepharose; from tissue; host or cells: rat brain
Source text: as §1
Both farnesyl protein transferase (FPT) and geranylgeranyl protein transferase (GGPT) I were partially purified from rat brain by ammonium sulfate fractionation followed by Q-Sepharose (Pharmacia, Inc.) anion exchange chromatography essentially as described by Yokoyama et al (Yokoyama, K., et al., (1991). A protein geranylgeranyltransferase from bovine brain: Implications for protein prenylation specificity, Proc. Natl. Acad. Sci USA 88: 5302-5306, the disclosure of which is incorporated herein by reference thereto). Human farnesyl protein transferase was also expressed in E. coli, using cDNA clones encoding both the α and β subunits. The methods used were similar to those published (Omer, C. et al., (1993), Characterization of recombinant human farnesyl protein transferase: Cloning, expression, farnesyl diphosphate binding, and functional homology with yeast prenyl-protein transferase, Biochemistry 32:5167-5176). Human farnesyl protein transferase was partially-purified from the soluble protein fraction of E. coli as described above. the tricyclic farnesyl protein transferase inhibitors disclosed herein inhibited both human and rat enzyme with similar potencies. Two forms of val^12-Ha-Ras protein were prepared as substrates for these enzymes, differing in their carboxy terminal sequence. One form terminated in cysteine-valine-leucine-serine (Ras-CVLS) the other in cystein-valine-leucine-leucine (Ras-CVLL). Ras-CVLS is a substrate for the farnesyl protein transferase while Ras-CVLL is a substrate for geranylgeranyl protein transferase I. The cDNAs encoding these proteins were constructed so that the proteins contain an amino-terminal extension of 6 histidine residues. Both proteins were expressed in Escherichia coli and purified using metal chelate affinity chromatography. The radiolabelled isoprenyl pyrophosphate substrates, [^3H]farnesyl pyrophosphate and [^3H]geranylgeranyl pyrophosphate, were purchased from DuPont/New England Nuclear.
The geranylgeranyl protein transferase I assay was essentially identical to the farnesyl protein transferase assay described above, with two exceptions: [^3H]geranylgeranylpyrophosphate replaced farnesyl pyrophosphate as the isoprenoid donor and Ras-CVLL was the protein acceptor. This is similar to the assay reported by Casey et al (Casey, P. J., et al., (1991), Enzymatic modification of proteins with a geranylgeranyl isoprenoid, Proc. Natl. Acad. Sci, USA 88: 8631-8635, the disclosure of which is incorporated herein by reference thereto).

[3] = test system: Ras-CVLS processing in COS monkey kidney cells; test: Cell-based assay: Ras-CVLS processing in transfected COS cells (immunoblot); settings: Primates; inhibition of Ras-CVLS processing in Ras-transfected COS cells
Source text: 2. Cell-Based Assay: Transient expression of val^12-Ha-Ras-CVLS and val^12-Ha-Ras-CVLL in COS monkey kidney cells: Effect of farnesyl protein transferase inhibitors on Ras processing and on disordered cell growth induced by transforming Ras.
COS monkey kidney cells were transfected by electroporation with the plasmid pSV-SPORT (Gibco/BRL) containing a cDNA insert encoding either Ras-CVLS or Ras-CVLL, leading to transient overexpression of a Ras substrate for either farnesyl protein transferase or geranylgeranyl protein transferase I, respectively (see above).
Following electroporation, cells were plated into 6-well tissue culture dishes containing 1.5 ml of Dulbecco's-modified Eagle's media (GIBCO, Inc.) supplemented with 10% fetal calf serum and the appropriate farnesyl protein transferase inhibitors. After 24 hours, media was removed and fresh media containing the appropriate drugs was re-added.
48 hours after electroporation cells were examined under the microscope to monitor disordered cell growth induced by transforming Ras. Cells expressing transforming Ras become more rounded and refractile and overgrow the monolayer, reminiscent of the transformed phenotype. Cells were then photographed, washed twice with 1 ml of cold phosphate-buffered saline (PBS) and removed from the dish by scraping with a rubber policeman into 1 ml of a buffer containing 25 mM Tris, pH 8.0; 1 mM ethylenediamine tetraacetic acid; 1 mM phenylmethylsulfonyl fluoride; 50 μM leupeptin; and 0.1 μM pepstatin. Cells were lysed by homogenization and cell debris was removed by centrifugation at 2000×g for 10 min.
Cellular protein was precipitated by addition of ice-cold trichloroacetic acid and redissolved in 100 μl of SDS-electrophoresis sample buffer. Samples (5-10 μl) were loaded onto 14% polyacrylamide minigels (Novex, Inc.) and electrophoresed until the tracking dye neared the bottom of the gel. Proteins resolved on the gels were electroblotted onto nitrocellulose membranes for immunodetection.
Membranes were blocked by incubation overnight at 4° C. in PBS containing 2.5% dried milk and 0.5% Tween-20 and then incubated with a Ras-specific monoclonal antibody, Y13-259 (Furth, M. E., et al., (1982), Monoclonal antibodies to the p21 products of the transforming gene of Harvey murine sarcome virus and of the cellular ras gene family, J. Virol. 43: 294-304), in PBS containing 1% fetal calf serum for one hour at room temperature. After washing, membranes were incubated for one hour at room temperature with a 1:5000 dilution of secondary antibody, rabbit anti-rat IgG conjugated to horseradish peroxidase, in PBS containing 1% fetal calf serum. The presence of processed and unprocessed Ras-CVLS or Ras-CVLL was detected using a calorimetric peroxidase reagent (4-chloro-1-naphthol) as described by the manufacturer (Bio-Rad).

[4] = test system: T24-BAG4 human bladder carcinoma cells expressing an activated H-ras gene; test: Cell Mat assay: inhibition of tumor cell growth; assay type: cell-based; settings: for IC50: tIC50
Procedure: (§2) Normal human HEPM fibroblasts were planted in 3.5 cm dishes at a density of 5×10^4 cells/dish in 2 ml growth medium, and incubated for 3-5 d to achieve confluence. Medium was aspirated from each dish and the indicator tumor cells, T24-BAG4 human bladder carcinoma cells expressing an activated H-ras gene, were planted on top of the fibroblast monolayer at a density of 2×10^3cells/dish in 2 ml growth medium, and allowed to attach overnight. Compound-induced colony inhibition was assayed by addition of serial dilutions of compound directly to the growth medium 24 h after tumor cell planting, and incubating cells for an additional 14 d to allow colony formation. Assays were terminated by rinsing monolayers twice with phosphate-buffered saline (PBS), fixing the monolayers with a 1% glutaraldehyde solution in PBS, then visualizing tumor cells by staining with X-Gal (Price, J., et al., Lineage analysis in the vertebrate nervous system by retrovirus-mediated gene transfer, Proc. Natl. Acad. Sci.84, 156-160(1987)). […] Both IC50 values were obtained by determining the density of tumor cells and mat cells by visual inspection and enumeration of cells per colony and the number of colonies under the microscope. The therapeutic index of the compound was quantitatively expressed as the ratio of mIC50/tIC50, with values greater than one indicative of tumor target specificity.

[5] = test system: Normal human HEPM fibroblasts; test: Cell Mat assay: inhibition of normal cell growth; assay type: cell-based; settings: Homo sapiens, Fibroblast, mIC50, normal cell monolayer
Procedure: as §2

[6] = Ras-CVLS farnesylation, partially purified rat brain FPT, read-out: FPT IC50

IC50 [1, 6] [µM] | IC50 ([4]; Homo sapiens) [µM] | Structure (SMILES) | IC50 [3] [µM] | IC50 [5] [µM] | also measured
– | – | CCOC(=O)N1CCC(C2c3ccc(Cl)cc3C=Cc3ccc[n+]([O-])c32)CC1 (stereo not shown) | – | – | melting point: 78.6 to 89.4 °C
– | – | O=C(Oc1cccnc1)N1CCC(C2c3ccc(Cl)cc3C=Cc3cccnc32)CC1 (stereo not shown) | – | – | melting point: 102.1 to 103.9 °C
1.6 | 25 | CCSC(=O)N1CCC(=C2c3ccc(Cl)cc3CCc3cccnc32)CC1 [Compound 500.00] | 22 | 25 | selective for FPT inhibition (versus GGPT) ([2]; FPT versus GGPT): at least 31 fold; inhibition at 50 µM ([2]; at 50 μM): 7%; selective antiproliferative activity against Ras-transformed cells versus normal cells [4]: no
7.2 | 18 | CCOC(=O)N1CCN(C2c3ccc(Cl)cc3CCc3cccnc32)CC1 (stereo not shown) [Compound 550.00, Ethyl 4-(8-chloro-6,11-dihydro-11H-benzo[5,6]cyclohepta[1,2-b]pyridin-11-yl)-1-piperazinecarboxylate] | > 20 | > 50 | IC50 [4]: 25 µM
0.84 | – | O=C(Oc1ccccc1)N1CCC(=C2c3ccc(Cl)cc3CCc3cccnc32)CC1 [Compound 565.00] | 6.7 | – | –
4.4 | 37 | CC(C)COC(=O)N1CCC(=C2c3ccc(Cl)cc3CCc3cccnc32)CC1 [Compound 575.00] | 9.9 | > 50 | –
– | 18 | O=C(Sc1ccccc1)N1CCC(=C2c3ccc(Cl)cc3CCc3cccnc32)CC1 [Compound 595.00, 4-(8-chloro-5,6-dihydro-11H-benzo[5,6]cyclohepta[1,2-b]-pyridin-11ylidene)-1-piperinecarbothioic Acid, S-phenyl Ester] | 5.1 | > 50 | melting point: 175 to 177 °C
– | – | O=C(Oc1cccnc1)N1CCN(C2c3ccc(Cl)cc3CCc3cccnc32)CC1 (stereo not shown) [Compound 610.00, 3-pyridyl 4-(8-chloro-6,11-dihydro-5H-benzo[5,6]-cyclohepta[1,2-b]pyridin-11-yl)-1-piperazinecarboxylate] | 3 | – | IC50 [1]: 0.5 µM
1.22 | > 50 | CCOC(=O)N1CCC(C2c3ccc(Cl)cc3CCc3cccnc32)CC1 (stereo not shown) [Compound 618.00] | 20.5 | > 50 | IC50 ([2]; Ras-CVLL as acceptor, read-out: GGPT IC 50): > 50 µM; selective antiproliferative activity against Ras-transformed cells versus normal cells [4]: little
11.6 | – | CCOC(=O)N1CCC(=C2c3ccc(Cl)cc3CCc3c(On4nnc5ccccc54)ccnc32)CC1 [Compound 654.00, Ethyl 4-[4-[(1H-benzotriazol-1-yl)oxy]-8-chloro-5,6-dihydro-11H-benzo[5,6]cyclohepta[1,2-b]pyridin-11-ylidene]-1-piperidine Carbamate] | – | – | melting point: 181.5 to 183.9 °C
0.31 | – | CN1CCC(OC(=O)N2CCN(C3c4ccc(Cl)cc4CCc4cc(Br)cnc43)CC2)CC1 (stereo not shown) [Compound 803.00] | > 5 | – | –

Structure (SMILES) | IC50 [1, 6] [µM] | IC50 ([4]; Homo sapiens) [µM] | IC50 [3] [µM] | IC50 [5] [µM] | also measured
O=C(Oc1cccnc1)N1CCN([C@@H]2c3ccc(Cl)cc3CCc3cccnc32)CC1 [Compound 600.00, (+) 3-pyridyl 4-(8-chloro-6,11-dihydro-5H-benzo[5,6]-cyclohepta[1,2-b]pyridin-11(R)-yl)-1-piperazine Carboxylate] | – | 12.5 | 6.9 | 50 | IC50 [1]: 1.28 µM
O=C(Oc1cccnc1)N1CCN([C@H]2c3ccc(Cl)cc3CCc3cccnc32)CC1 [Compound 608.00, (−) 3-pyridyl 4-(8-chloro-6,11-dihydro-5H-benzo[5,6]-cyclohepta[1,2-b]pyridin-11(S)-yl)-1-piperazinecarboxylate] | – | 37 | 3.9 | > 50 | IC50 [1]: 0.82 µM
O=C(Oc1ccccc1)N1CCN(C2c3ccc(Cl)cc3CCc3cccnc32)CC1 (stereo not shown) [Compound 612.00] | – | 50 | 4.8 | > 50 | IC50 [1]: 0.8 µM; selective antiproliferative activity against Ras-transformed cells versus normal cells [4]: little
